In US20110086872A1, “Berberine as a selective lung cancer agent and other compositions and methods” (priority 2007, published 2011):
Where two headings read alike, the source gives them in different places.

Key:
[1] = system: human cancer cell lines tested; assay: Cytotoxic activity against panel of human cancer cell lines; format: cell-based
[2] = system: W2 clone of P. falciparum; conditions: Vennestrom and Klayman, 1988; read-out: literature IC50 against W2 clone of P. falciparum; cited from earlier work
[3] = system: Colon, Col 2 human cancer cell line; conditions: cited from earlier work
[4] = system: Lung, Lu1 human cancer cell line; conditions: cited from earlier work
[5] = system: Lu1 human lung cancer cell line; assay: Cytotoxic activity against Lu1 cancer cell line; format: cell-based; conditions: pure isolates
Experimental: The CHCl3 was fractionated over a silica gel column (5×60 cm, 700 g, 63-200 μm). For the column chromatography, a CHCl3/MeOH gradient solvent system was applied with a gradual increase of the MeOH content. Fourteen fractions were collected based on the similarity of their TLC profiles. The fractions were then evaluated for their cytotoxic activity against Lu1 cancer cell line in order to determine the active fractions. […] (See FIG. 4, Table 2).

[6] = system: D6 clone of P. falciparum; conditions: Vennestrom and Klayman, 1988; read-out: literature IC50 against D6 clone of P. falciparum; cited from earlier work
[7] = system: D6 clone of P. falciparum; assay: Antimalarial activity, D6 clone; format: cell-based
Experimental: (§1) The plant partitions were evaluated using in vitro bioassays based on a panel of human cancer cell lines: BC, Human Breast; Col2, Human Colon; KB, Human Carcinoma of the Nasopharynx; KBV1, Vinblastine-resistant KB; LNCaP, Hormone-dependent Human Prostate, and ZR75-1, Hormone-dependent Human Breast. These lines represent the main priorities for anticancer screening of the National Cancer Institute and have been well documented (Lin et al., J. Nat. Prod. 56: 22-29 (1993). In addition, samples were evaluated against the HIV-1 reverse transcriptase assay and, if active, against HIV-2 RT assay and a TIBO-resistant HIV-1 strain. Furthermore, some samples were tested for antimalarial activity (Angerhofer, Advances in Natural Products Chemistry, ed. Atta-ur-Rahman, pp 311-329 (1992)).
(§2) Thus, extracts, fractions and isolated compounds of plants were evaluated against three basic disease states: cancer, AIDS and malaria according to the published and established protocols and procedures. […] ((Angerhofer, Advances in Natural Products Chemistry, ed. Atta-ur-Rahman, pp 311-329 (1992), Monks et al., J. Nat'l Cancer Inst. 83: 11, 757-766 (1991), Tan et al., J. Nat. Product 54:143-154 (1991), Tan et al., Biochem. Biophysics. Res. Commun. 185:370-378 (1992), Geran et al., Cancer Chemother. Rep., Part 3, 3: 1-17 (1972), Skehan et al., J. Nat'l Cancer Inst. 82:1107-1112 (1990).) […]

[8] = system: Breast, BC1 human cancer cell line; conditions: cited from earlier work
[9] = biological target: T1, human immunodeficiency virus-1 reverse transcriptase (HIV-1 RT) (Human immunodeficiency virus type 1 group M subtype B, UniProt P03366); format: biochemical; conditions: no unit or quantity printed
T1 construct: human immunodeficiency virus-1 reverse transcriptase (HIV-1 RT)
Experimental: as §1
Thus, extracts, fractions and isolated compounds of plants were evaluated against three basic disease states: cancer, AIDS and malaria according to the published and established protocols and procedures. […] ((Angerhofer, Advances in Natural Products Chemistry, ed. Atta-ur-Rahman, pp 311-329 (1992), Monks et al., J. Nat'l Cancer Inst. 83: 11, 757-766 (1991), Tan et al., J. Nat. Product 54:143-154 (1991), Tan et al., Biochem. Biophysics. Res. Commun. 185:370-378 (1992), Geran et al., Cancer Chemother. Rep., Part 3, 3: 1-17 (1972), Skehan et al., J. Nat'l Cancer Inst. 82:1107-1112 (1990).)

[10] = system: W2 clone of P. falciparum; assay: Antimalarial activity, W2 clone; format: cell-based
Experimental: as §1, §2

## COc1ccc2c(c1OC)C(=O)N1CCc3cc4c(cc3C(=O)C21O)OCO4 (racemic) [(±)-Chilenine]
[1]; all cell lines of the panel, read-out: IC50 values against all of the human cancer cell lines tested
  IC50: 15.7 to 33.4 µM

## COc1ccc2cc3[n+](cc2c1OC)CCc1cc2c(cc1-3)OCO2 [berberine]
[2]
  IC50: 0.44 µM
[3]
  IC50: 40 µM
[4]
  IC50: 25 µM
[5]
  IC50: 11.9 µM
[6]
  IC50: 0.42 µM
[7]; D6 clone
  selectivity index (SI), D6: 53.6
[7]; Plasmodium falciparum, D6, read-out: IC50 against D6 clone of P. falciparum
  IC50: 1.1 µM
[8]
  IC50: 2.74 µM
[1]; Homo sapiens, cancer cell lines other than lung, read-out: IC50 values, other cancer cell lines tested
  IC50: > 59.5 µM
[9]
  anti-HIV activity against HIV-1 RT, value: 353.3
[10]; Plasmodium falciparum, W2, read-out: IC50 against W2 clone of P. falciparum
  IC50: 3.2 µM
[10]; W2 clone
  selectivity index (SI), W2: 18.7
